Here are results for two molecules from patent US20190127413A1, “Compositions and Methods for Non-Toxic Delivery of Antiprogestins” (Repros Therapeutics Inc., priority 2010, published 2019).

Each structure is given as a SMILES string. “Also recorded” adds a separate entry of the source.

Data set [1] deals with primary cultures of human and animal hepatocytes. Description: Metabolism in primary cultures of hepatocytes. The data set is classed as in vitro ADME. The settings on record: primary hepatocyte cultures. Here is the method: (§1) Pharmacokinetic studies performed on participating subjects detected a high Cmax and a Tmax at 1-2 hours following administration. […] Metabolism of CDB-4124 by the liver provides the opportunity for liver damage and greatly reduces the concentration of the antiprogestin before it reaches the systemic circulation. Thus, alternative routes of administration of antiprogestins that avoid first pass metabolism such as, without limitation, intravenous, intramuscular, and sublingual, should allow antiprogestins to be absorbed directly into the systemic circulation and thereby provide a method for treating progestone-dependent conditions while avoiding liver toxicity. Administration routes which avoid first pass metabolism may also require less drug per dose to achieve the same therapeutic benefit relative to oral administration.

Data set [2] can be described thus: Cmax after vaginal administration extrapolated from beagles to humans. The format is in vivo. The settings on record: for predicted Cmax for vaginal administration as percentage of the same dose administered orally: humans. Here is the method: The maximum circulating concentrations (Cmax) of CDB-4124 obtained following vaginal administration to beagles were extrapolated to humans for the 12.5 mg, 25 mg and 50 mg doses actually administered during the Phase III clinical studies.

Data set [3] has as its system progesterone-induced endometrial proliferation. Description: Anti-Clauberg study, subcutaneous versus oral. The data set is classed as in vivo, rabbits. The source says: To determine whether the low circulating levels of CDB-4124 when administered locally could have any impact predictive of efficacy, an anti-Clauberg study was run in which immature estradiol-primed rabbits were coadministered progesterone and various doses of CDB-4124 by either subcutaneous or oral administration. At least 3 different highly trained individuals evaluated the rabbit uterus for glandular growth, for complexity and overall progesterone-induced “development”. The inhibition (by percentage) of progesterone-induced endometrial proliferation at each dose was assayed. […] However, maximal inhibition required a 8-fold increase in dosage when administered orally (i.e. 8 mg/kg). Importantly 8 mg/kg corresponds closely to the 50 mg/day dose of CDB-4124 administered to the female subjects described in Example 4.

The nature of data set [4]: Clinical trials of daily oral CDB-4124 (Proellex) capsules: liver toxicity, liver enzymes. The data set is classed as in vivo, human. How it is done:
The maximum concentrations of CDB-4124 and its mono-demethylated metabolite (CDB-4453) for the 12.5 mg dose were 25% of the 50 mg dose. All liver toxicities resolved in those women that returned for safety follow-ups, including those subjects that developed liver-associated serious adverse effects (SAEs).
To date, over 600 patients, including women with confirmed cases of endometriosis or uterine fibroids, have participated in double blind and open label clinical trials in which patients were administered daily oral capsules containing doses of 12.5 mg, 25 mg or 50 mg CDB-4124 (Proellex) for over one month. Of these patients, about 500 received Proellex and about 130 received a placebo. Of the patients receiving Proellex, about 190 received a dose of 50 mg CDB-4124 per day, about 260 received a dose of 25 mg CDB-4124 per day and about 55 received a dose of 12.5 mg per day.
Liver enzymes were frequently monitored in participating subjects. The liver enzyme level at which the clinical trials would be discontinued was set at an increase in liver aminotransferases greater than, or equal to three times the Upper Limit of Normal (≥3×ULN).
Of the nine subjects with a confirmed increase in liver enzymes ≥3×ULN, seven were severe enough elevations to be reported to the FDA as SAEs. One of these seven subjects had been receiving a dose of 25 mg CDB-4124 per day; the remaining six subjects had been receiving a dose of 50 mg CDB-4124 per day. Liver enzymes ≥3×ULN persisted in five of the nine subjects with a confirmed increase in liver enzymes ≥3×ULN. These five subjects had previously been dosed with the 50 mg dose. One of these subjects is receiving oral medication for treatment of their liver condition. Clinical trials involving CDB-4124 at all doses were voluntarily suspended as a result of these SAEs and were subsequently placed on clinical hold by the United States Food and Drug Administration for safety reasons.

Data set [5] in a line: Pharmacokinetic studies on participating clinical trial subjects, oral CDB-4124. The settings on record: for maximum concentration for the 12.5 mg dose as percentage of the 50 mg dose: oral CDB-4124, parent and mono-demethylated metabolite. The data set is classed as in vivo, human. How it is done:
as §1

Data set [6] in a line: Oral versus vaginal pharmacokinetics in beagles. The settings on record: 25 mg; for metabolism after peak plasma concentration: oral, micronized powder; for metabolism / peak plasma concentration (Cmax): vaginal suppository. The format is in vivo. How it is done:
Beagles were administered 25 mg of CDB-4124 or CDB-4453 (the monodemethylated metabolite of CDB-4124) formulated as either a micronized powder or a vaginal suppository. […] Moreover, systemic exposure of the drug is much lower when administered locally (compare AUC for CDB-4124 and CDB-4453 when administered vaginally vs. orally).

Data set [7] deals with progesterone-induced endometrial proliferation. Description: Anti-Clauberg study, vaginal versus oral (McPhail index). The data set is classed as in vivo, rabbits. Here is the method: Another anti-Clauberg study was run in which immature estradiol-primed rabbits were administered progesterone alone (vehicle control) or were co-administered progesterone and three doses of CDB-4124 by either vaginal or oral administration. The inhibition of progesterone-induced endometrial proliferation at each dose was assayed. FIG. 3 illustrates the decrease in the McPhail index following increasing doses of CDB-4124 administered by either route. Maximal inhibition (i.e. a decrease in the McPhail index to 1.5) occurred at 0.2 mg/kg CDB-4124 when administered vaginally, compared to 0.8 mg/kg when administered orally.

The target of another data set is T1, glucocorticoid receptor (Homo sapiens, UniProt P04150).
T1 sequence (P04150 1-777): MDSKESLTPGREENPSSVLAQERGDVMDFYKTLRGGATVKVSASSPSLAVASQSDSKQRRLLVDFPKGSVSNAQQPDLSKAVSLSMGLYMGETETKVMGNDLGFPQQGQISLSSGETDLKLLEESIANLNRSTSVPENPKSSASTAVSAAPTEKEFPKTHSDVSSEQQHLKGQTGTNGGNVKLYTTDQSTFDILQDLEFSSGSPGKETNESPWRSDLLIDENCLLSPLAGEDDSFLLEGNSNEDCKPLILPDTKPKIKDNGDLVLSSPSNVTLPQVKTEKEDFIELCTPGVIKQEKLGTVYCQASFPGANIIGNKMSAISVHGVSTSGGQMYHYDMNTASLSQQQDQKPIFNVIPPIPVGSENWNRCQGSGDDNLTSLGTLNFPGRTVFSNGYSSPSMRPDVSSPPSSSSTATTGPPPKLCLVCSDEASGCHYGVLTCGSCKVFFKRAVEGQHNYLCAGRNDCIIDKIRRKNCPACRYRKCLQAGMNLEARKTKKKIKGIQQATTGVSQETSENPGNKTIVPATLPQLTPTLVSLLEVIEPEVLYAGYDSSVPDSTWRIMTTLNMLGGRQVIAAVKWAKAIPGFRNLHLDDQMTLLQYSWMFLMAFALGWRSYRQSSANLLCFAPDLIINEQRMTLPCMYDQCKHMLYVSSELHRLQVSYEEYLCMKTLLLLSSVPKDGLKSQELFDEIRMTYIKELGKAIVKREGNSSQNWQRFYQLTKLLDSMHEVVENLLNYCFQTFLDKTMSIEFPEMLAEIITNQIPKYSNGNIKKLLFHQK
The settings on record: cited from earlier work.

What is called Tmax is the time from dosing to the highest level. As to `COCC(=O)[C@@]1(OC(C)=O)CC[C@H]2[C@@H]3CCC4=CC(=O)CCC4=C3[C@@H](c3ccc(N(C)C)cc3)C[C@@]21C` [CDB-4124, 21-methoxy-17α-acetoxy-11β-(4 N, N-dimethylaminophenyl)-19-norpregna-4,9-diene-3,20-dione], the “production of the mono-demethylated metabolite” value in data set [1] was “rapidly produce the mono-demethylated metabolite”. The “predicted Cmax for vaginal administration as percentage of the same dose administered orally” value in data set [2] (12.5 mg dose) is “approximately 6.5%”. Moreover, the “predicted Cmax for vaginal administration as percentage of the same dose administered orally” value in data set [2] (50 mg dose) is “approximately 2%”. Besides, the “Cmax with 12.5 mg vaginal dose as percentage of that with 50 mg oral dose” value in data set [2] (in vivo, po) is 2%. Besides, the “dose at which maximal inhibition of progesterone-induced endometrial proliferation was observed” value in data set [3] (oral) was determined as 8 mg/kg. Besides, the “increase in dosage required for maximal inhibition, oral versus subcutaneous” value in data set [3] (rabbit, in vivo) is listed as 8 fold. Besides, the “dose at which maximal inhibition of progesterone-induced endometrial proliferation was observed” value in data set [3] (subcutaneous) is “less than 1 mg/kg”. For the same molecule, the “subjects with liver enzyme elevation reported as SAE” value in data set [4] (25 mg CDB-4124 per day) is on record as “One”. In addition, the “subjects with liver enzyme elevation reported as SAE” value in data set [4] (50 mg CDB-4124 per day) is “six”. Further, the “subjects in whom liver enzymes ≥3×ULN persisted” value in data set [4] (50 mg dose) was “five”. Also, in data set [4] (all doses), the “subjects with elevations severe enough to be reported to the FDA as SAEs” value was “seven” and the “subjects with increase in liver enzymes ≥3×ULN confirmed by repeat test in 48 hours” value is reported as “nine”. Also, in data set [4] (all doses, first test), the “subjects with increase in liver enzymes ≥3×ULN” value is given as “thirteen”. For the same molecule, the “adverse liver toxicity signals” value in data set [4] (oral, 12.5 mg, versus placebo) is on record as “no adverse liver toxicity signals different from placebo”. For the same molecule, the “frequency and intensity of liver toxicity effects relative to 50 mg/day” value in data set [4] (oral, 25 mg/day) was “significantly lower in frequency and intensity”. Further, the “women exhibiting severe liver toxicity” value in data set [4] (oral, 50 mg/day, Phase III clinical studies) was 3-4%. For the same molecule, the “liver toxicity on chronic daily administration” value in data set [4] (therapeutic oral dosages, patients) is on record as “exhibit liver toxicity”. Besides, the “monodemethylated metabolite detected (first pass metabolism)” value in data set [5] (after oral ingestion of CDB-4124) is on record as “Large quantities; also recorded: Large amounts”. Besides, the Cmax entry in data set [5] (following oral administration) is reported as “high”. In data set [5] (human, in vivo, following oral administration), the time to peak (Tmax) is 1 to 2 h. Besides, the “maximum concentration for the 12.5 mg dose as percentage of the 50 mg dose” value in data set [5] turned out to be 25%. Further, in data set [6], the “systemic exposure (AUC), local (vaginal) versus oral” value is recorded as “much lower”; the “metabolism after peak plasma concentration” value was “rapidly metabolized”; the metabolism entry is “metabolized slowly”; the “peak plasma concentration (Cmax)” value is reported as “relatively low”. Further, the “dose at which maximal inhibition occurred” value in data set [7] (oral) stood at 0.8 mg/kg. In addition, the “dose at which maximal inhibition occurred” value in data set [7] (vaginal) is 0.2 mg/kg. Moreover, the “McPhail index at maximal inhibition” value in data set [7] (vaginal 0.2 mg/kg or oral 0.8 mg/kg) was 1.5.

On to `CNc1ccc([C@H]2C[C@@]3(C)[C@@H](CC[C@]3(OC(C)=O)C(=O)COC)[C@@H]3CCC4=CC(=O)CCC4=C32)cc1` [CDB-4453, 21-methoxy-17α-acetoxy-11β-(4-N-methylaminophenyl)-19-norpregna-4,9-diene-3,20-dione], for which, on glucocorticoid receptor, the “anti-glucocorticoid activity relative to parent CDB-4124” value is listed as “even lower anti-glucocorticoid activity than its parent”. For the same molecule, in data set [5], the “maximum concentration for the 12.5 mg dose as percentage of the 50 mg dose” value came to 25%. For the same molecule, in data set [6], the “systemic exposure (AUC), local (vaginal) versus oral” value was “much lower”; the “metabolism after peak plasma concentration” value is listed as “rapidly metabolized”; the metabolism result is “metabolized slowly”; the “peak plasma concentration (Cmax)” value is given as “relatively low”.
